From patent US12626779B2, “Determining a targeted therapy using virtual inference of protein activity by regulon enrichment analysis of an individual subject tissue sample” (The Trustees of Columbia University in the City of New York, priority 2015, dated 2026)
Several values for one entry are separate records, joined by “and”; a condition that tells them apart may be missing. Equal values may be shown once. Read-outs that look alike come from different tables or passages of the source.

System: lung adenocarcinoma cell lines
Excerpt: FIG. 7A illustrates the probability density for the nonmutated (salmon) and mutated (green) samples based on MPS for six actionable mutations (complete list in FIGS. 21A-21F). Right plots show MPS (v axis) for all samples rank-sorted by MPS; green vertical lines indicate the mutated samples. MPS-defined WT and mutant phenotypes (likelihood ratio >3) are highlighted in salmon and green. […] Scatter plots show drug sensitivity, quantified by the area under the titration curves (AUC), for EGFR-targeting drugs as a function of MPS (expressed as likelihood ratio). Cell lines resembling an EGFR mutated and WT phenotypes are highlighted in green (likelihood ratio >3) and salmon boxes, respectively. Green dots indicate cell lines harboring nonsilent mutations. Solid and doted horizontal lines indicate the mean and 2.33 standard deviation over the mean of the chemoresistant cell lines, respectively. […] Violin plots show the probability density for drug sensitivity (AUC) of the cell lines showing an EGFR WT (green) or mutant (brown) phenotype according to MPS; horizontal lines indicate distribution means, which were contrasted by Student t-test (P values in insets).

[1] = EGFR-mutated cell lines with MPS>0.5
[2] = cell lines with low EGFR MPS (<−0.5) that yet harbored EGFR mutations

Row | Compound | cell lines observed to be sensitive to the drug (sensitive/total) [1] | cell lines observed to be sensitive to the drug (sensitive/total) [2] | fraction of cell lines responding to EGFR inhibitors (EGFR WT cell lines with MPS<−0.5) [%] | fraction of cell lines responding to EGFR inhibitors (EGFR WT cell lines with MPS>0.5) [%] | fraction of cell lines responding to EGFR inhibitors
1 | C#Cc1cccc(Nc2ncnc3cc(OCCOC)c(OCCOC)cc23)c1 [erlotinib] | 5/6 | 1/2 |  |  | 
2 | CN1CCN(CCOc2cc(OC3CCOCC3)c3c(Nc4c(Cl)ccc5c4OCO5)ncnc3c2)CC1 [AZD0530, saracatinib] | 5/6 | 0/2 | 33 | 50 | 
3 | CS(=O)(=O)CCNCc1ccc(-c2ccc3ncnc(Nc4ccc(OCc5cccc(F)c5)c(Cl)c4)c3c2)o1 [lapatinib] | 4/6 | 1/2 |  |  | 36% and 27%
